Laboratory results taken from PubChem BioAssay AID330 (DTP/NCI, 2004).
“And” between values parts separate entries of the source, which are not always exact repeats. Equal entries are not always repeated. Toxic doses and inconclusive results are not listed. Rule for the calls: active = survival T/C of 150% or more; inactive = T/C below 125% in these data.

Tested on: P388 leukemia ip, CD2F1 mice, survival T/C
Assay: NCI In Vivo Anticancer Drug Screen. Data for tumor model P388 Leukemia (intraperitoneal) in CD2F1 (CDF1) mice
Details: endpoint: median survival time, higher = longer survival
How it was run: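 Mice carrying the transplanted tumor received test compound or vehicle. Survival was recorded in each group, and the value is the treated-group measurement divided by that of the vehicle-treated control group.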

[1] = dose: 50.0 mg/kg/injection, schedule: Q01DX009 (ip), vehicle: Klucel (hydroxypropylcellulose) (HPC)
[2] = dose: 100.0 mg/kg/injection, schedule: Q01DX009 (ip), vehicle: Klucel (hydroxypropylcellulose) (HPC)
[3] = dose: 200.0 mg/kg/injection, schedule: Q01DX009 (ip), vehicle: Klucel (hydroxypropylcellulose) (HPC)
[4] = dose: 60.0 mg/kg/injection, schedule: Q01DX005 (ip), vehicle: Klucel (hydroxypropylcellulose) (HPC)
[5] = dose: 60.0 mg/kg/injection, schedule: Q01DX005 (ip), vehicle: saline with Tween-80
[6] = dose: 120.0 mg/kg/injection, schedule: Q01DX005 (ip), vehicle: saline with Tween-80
[7] = dose: 240.0 mg/kg/injection, schedule: Q01DX005 (ip), vehicle: saline with Tween-80

Measured: T/C

O=C1NN=COc2ccccc21
inactive: dose: 50.0 mg/kg/injection, schedule: Q01DX009 (ip), vehicle: saline with Tween-80 106 % of control and 108 % of control and 93 % of control | dose: 100.0 mg/kg/injection, schedule: Q01DX009 (ip), vehicle: saline with Tween-80 100 % of control and 102 % of control and 105 % of control | dose: 200.0 mg/kg/injection, schedule: Q01DX009 (ip), vehicle: saline with Tween-80 106 % of control and 115 % of control and 121 % of control | dose: 400.0 mg/kg/injection, schedule: Q01DX009 (ip), vehicle: saline with Tween-80 110 % of control and 119 % of control

Cc1ccc(-n2nc(C)cc2C)nn1
inactive: dose: 50.0 mg/kg/injection, schedule: Q01DX009 (ip), vehicle: saline 99 % of control | dose: 100.0 mg/kg/injection, schedule: Q01DX009 (ip), vehicle: saline 101 % of control

Cc1cc(=O)n(-c2ccc(S(N)(=O)=O)cc2)c(C)c1C(=O)O
inactive: dose: 50.0 mg/kg/injection, schedule: Q01DX005 (ip), vehicle: saline with Tween-80 98 % of control | dose: 100.0 mg/kg/injection, schedule: Q01DX005 (ip), vehicle: saline with Tween-80 96 % of control | dose: 200.0 mg/kg/injection, schedule: Q01DX005 (ip), vehicle: saline with Tween-80 103 % of control

Cc1nn(C)c(NC(=O)c2ccccc2O)c1SC#N
inactive: dose: 6.25 mg/kg/injection, schedule: Q01DX005 (ip), vehicle: saline with Tween-80 93 % of control | dose: 12.5 mg/kg/injection, schedule: Q01DX005 (ip), vehicle: saline with Tween-80 93 % of control | dose: 25.0 mg/kg/injection, schedule: Q01DX005 (ip), vehicle: saline with Tween-80 93 % of control

COc1cc2c(c(OC)c1OC)CCc1cn[nH]c1-2
inactive: dose: 100.0 mg/kg/injection, schedule: Q01DX001 (ip), vehicle: Klucel (hydroxypropylcellulose) (HPC) 116 % of control | dose: 200.0 mg/kg/injection, schedule: Q01DX001 (ip), vehicle: Klucel (hydroxypropylcellulose) (HPC) 123 % of control | dose: 400.0 mg/kg/injection, schedule: Q01DX001 (ip), vehicle: Klucel (hydroxypropylcellulose) (HPC) 116 % of control

O=c1[nH]c2ccc(Cl)cc2c2ccccc12
inactive: [1] 101 % of control | [2] 100 % of control | [3] 105 % of control

CC(=O)c1c(-c2ccc(-c3c[nH]c(C)c3C(C)=O)cc2)c[nH]c1C
inactive: dose: 100.0 mg/kg/injection, schedule: Q04DX002 (ip), vehicle: saline with Tween-80 95 % of control | dose: 200.0 mg/kg/injection, schedule: Q04DX002 (ip), vehicle: saline with Tween-80 91 % of control | dose: 400.0 mg/kg/injection, schedule: Q04DX002 (ip), vehicle: saline with Tween-80 91 % of control

CC1(C)N=C(NN=C2CCCCC2)SP1(=O)NNc1ncccn1 (configuration not stated)
inactive: dose: 15.0 mg/kg/injection, schedule: Q01DX005 (ip), vehicle: Klucel (hydroxypropylcellulose) (HPC) 102 % of control | dose: 30.0 mg/kg/injection, schedule: Q01DX005 (ip), vehicle: Klucel (hydroxypropylcellulose) (HPC) 103 % of control | [4] 98 % of control and 99 % of control

CCC(=NCCCCCCN=C(CC)c1cc(C)cc([N+](=O)[O-])c1O)c1cc(C)cc([N+](=O)[O-])c1O.[Fe]
inactive: [5] 90 % of control | [6] 86 % of control | [7] 94 % of control

C[Si](C)(C)O[C@@H]1CCCC1N (some centres not stated)
inactive: [5] 106 % of control | [6] 97 % of control | [7] 105 % of control

CCN(CC)CCCC(C)NC(C)CCCN(CC)CC (configuration not stated)
inactive: dose: 3.13 mg/kg/injection, schedule: Q01DX009 (ip), vehicle: water 112 % of control | dose: 6.25 mg/kg/injection, schedule: Q01DX009 (ip), vehicle: water 112 % of control | dose: 12.5 mg/kg/injection, schedule: Q01DX009 (ip), vehicle: water 99 % of control | dose: 25.0 mg/kg/injection, schedule: Q01DX009 (ip), vehicle: water 108 % of control | dose: 50.0 mg/kg/injection, schedule: Q01DX009 (ip), vehicle: water 104 % of control

Nn1c(=O)[nH][nH]c1=O
inactive: dose: 25.0 mg/kg/injection, schedule: Q01DX009 (ip), vehicle: Klucel (hydroxypropylcellulose) (HPC) 93 % of control | [1] 104 % of control | [2] 96 % of control | [3] 93 % of control

O=C1C(O)[C@@H](O)C(=O)N1Cc1ccccc1 (some centres not stated)
inactive: [4] 97 % of control | dose: 120.0 mg/kg/injection, schedule: Q01DX005 (ip), vehicle: Klucel (hydroxypropylcellulose) (HPC) 102 % of control | dose: 240.0 mg/kg/injection, schedule: Q01DX005 (ip), vehicle: Klucel (hydroxypropylcellulose) (HPC) 93 % of control
